From patent US8309540 come the findings set out here.

Molecules are shown by their SMILES. Like-named read-outs stand apart in the source and are kept apart here.

Compound `CCOc1cc2c3cc(c(OC)cc3n1)[C@H]1C[C@@H]1CC(C)(C)COC(=O)N[C@@H](C1CCCC1)C(=O)N1C[C@@H](C[C@H]1C(=O)OC)O2` displayed a ring closure, yield of all isomers (from CCOc1cc(O[C@H]2CN[C@H](C(=O)OC)C2)c2cc(C3CC3CC(C)(C)COC(=O)N[C@H](C(=O)O)C3CCCC3)c(OC)cc2n1, amide bond, HATU/DIEA, DCM, 7.1 mM, 18.0 h) of 65.5%.
In turn, `CCOc1cc2c3cc(c(OC)cc3n1)/C=C/C[C@@H]1CCC[C@H]1OC(=O)N[C@@H](C1CCCC1)C(=O)N1C[C@@H](C[C@H]1C(=O)OC)O2` came in with a ring closure, yield of all isomers (from C=CC[C@@H]1CCC[C@H]1OC(=O)N[C@H](C(=O)N1C[C@H](Oc2cc(OCC)nc3cc(OC)c(C=C)cc23)C[C@H]1C(=O)OC)C1CCCC1, rcm bond, Zhan 1b, DCE, 8.78 mM, 70.0 °C, 21.0 h) of 90.9%.
The compound `COC(=O)[C@@H]1C[C@@H]2CN1C(=O)[C@H](C1CCCCC1)NC(=O)OCC(C)(C)C/C=C/c1cc3c(cc(=O)[nH]c3cc1OC)O2` returned a ring closure, yield of all isomers (from C=CCC(C)(C)COC(=O)N[C@H](C(=O)N1C[C@H](Oc2cc(=O)[nH]c3cc(OC)c(C=C)cc23)C[C@H]1C(=O)OC)C1CCCCC1, rcm bond, Zhan 1B, DCM, 4.96 mM, 40.0 °C, 32.0 h) of 99.5%.
